Values after ≈ are worked out from the molar mass of the structure shown.
What was measured:
T. rubrum ATCC10218 = test: Measurement of antifungal activity (MIC, WST8 growth inhibition); format: cell-based; conditions: Trichophyton rubrum, 96 h; 80% growth inhibition concentration; T. rubrum ATCC10218, RPMI1640/MOPS, 28° C., 4 days
Description: (§1) The compounds for evaluation were dissolved in dimethyl sulfoxide (DMSO) and used. As the test medium, RPMI1640 medium containing 0.165 M 3-morpholino propane sulfonic acid (MOPS) was used. As the test strain, T. mentagrophytes ATCC18748 or T. rubrum ATCC10218 was used. 100 μL of the test strain each at a concentration of 1×10^4 conidia/mL was dispensed, mixed with compounds for evaluation on 96 well half area plate so that the concentration of DMSO becomes 1%, and cultured at 28° C. for 3 days (for T. mentagrophytes) or for 4 days (for T. rubrum). Then, 5 μL of Cell Counting Kit8 (WST8) was added and the absorbances at 450 nm and 595 nm was measured as background. Subsequently, they were incubated at 28° C. for 5 hours (for T. mentagrophytes) or overnight (for T. rubrum) to color, and again the absorbances at 450 nm and 595 nm was measured, and then calculated the growth inhibition percentages using the differences from the background, and 80% growth inhibition concentration was regarded as MIC (μg/ml). Measurement of antifungal activity was conducted by the following method. Compounds for evaluation were dissolved in dimethyl sulfoxide (DMSO) and used. As the test medium, RPMI1640 medium containing 0.165 M 3-morpholinopropane sulfonic acid (MOPS) was used. As the test strain, T. mentagrophytes ATCC18748 or T. rubrum ATCC10218 was used. 100 μL of the test strain was dispensed at a concentration of 1×10^4 conidia/mL, mixed with compounds for evaluation on 96 well half area plate so that the concentration of DMSO becomes 1%, and cultured at a culture temperature of 28° C. for 3 days (for T. mentagrophytes) or for 4 days (for T. rubrum). Then, 5 μL of Cell Counting Kit8 (WST8) was added and the absorbances at 450 nm and 595 nm was measured as background. Subsequently, they were incubated at 28° C. for 5 hours (for T. mentagrophytes) or overnight (for T. rubrum), and again measured the absorbances at 450 nm and 595 nm was measured, and then calculated the growth inhibition percentages using the differences from the background, and 80% growth inhibition concentration was regarded as MIC (μg/ml).

[1] = system: T. mentagrophytes ATCC18748; test: as above; format: cell-based; conditions: Trichophyton mentagrophytes, 72 h; 80% growth inhibition concentration; T. mentagrophytes ATCC18748, RPMI1640/MOPS, 28° C., 3 days
Description: as §1

CC(=O)Oc1ccc(-n2nc(C)cc2C)c(O)c1 [Example 57, 4-(3,5-dimethyl-1H-pyrazol-1-yl)-3-hydroxyphenyl acetate]
MIC (T. rubrum ATCC10218): 4 to 16 µg/mL | MIC [1]: 2 to 8 µg/mL

Cc1cc(C)n(-c2ccc(N)cc2O)n1 [Example 31, 5-Amino-2-(3,5-dimethyl-1H-pyrazol-1-yl)phenol]
MIC (T. rubrum ATCC10218): 4 to 16 µg/mL (≈ 19.7 to 78.7 µM) | MIC [1]: 2 to 8 µg/mL (≈ 9.84 to 39.4 µM)

Cc1cc(C)n(-c2cccc(O)c2O)n1 [Example 15, 3-(3,5-Dimethyl-1H-pyrazol-1-yl)benzene-1,2-diol]
MIC (T. rubrum ATCC10218): 16 to 32 µg/mL (≈ 78.3 to 157 µM) | MIC [1]: 16 to 32 µg/mL (≈ 78.3 to 157 µM)

Cc1cc(C)n(-c2ccc(C(F)(F)F)cc2O)n1 [Example 50, 2-(3,5-Dimethyl-1H-pyrazol-1-yl)-5-trifluoromethylphenol]
MIC (T. rubrum ATCC10218): 4 to 16 µg/mL (≈ 15.6 to 62.4 µM) | MIC [1]: 2 to 8 µg/mL (≈ 7.81 to 31.2 µM)

COc1ccc(-n2nc(C)cc2C)c(O)c1 [Example 45, 2-(3,5-Dimethyl-1H-pyrazol-1-yl)-5-methoxyphenol]
MIC (T. rubrum ATCC10218): ≤ 2 µg/mL | MIC [1]: ≤ 1 µg/mL

CC(=O)Oc1ccc(-n2nc(C)c(Cl)c2C)c(O)c1 [Example 58, 4-(4-chloro-3,5-dimethyl-1H-pyrazol-1-yl)-3-hydroxyphenyl acetate]
MIC (T. rubrum ATCC10218): ≤ 2 µg/mL | MIC [1]: 2 to 8 µg/mL

Cc1nn(-c2ccc(Br)cc2O)c(C)c1C [Example 56, 5-bromo-2-(3,4,5-trimethyl-1H-pyrazol-1-yl)phenol]
MIC (T. rubrum ATCC10218): ≤ 2 µg/mL | MIC [1]: ≤ 1 µg/mL

Cc1nn(-c2ccccc2O)c(C)c1C [Example 9, 2-(3,4,5-Trimethyl-1H-pyrazol-1-yl)phenol]
MIC (T. rubrum ATCC10218): ≤ 2 µg/mL | MIC [1]: ≤ 1 µg/mL

Cc1nn(-c2ccc(F)cc2O)c(C)c1Cl [Example 21, 2-(4-Chloro-3,5-dimethyl-1H-pyrazol-1-yl)-5-fluoro phenol]
MIC (T. rubrum ATCC10218): 4 to 16 µg/mL (≈ 16.6 to 66.5 µM) | MIC [1]: ≤ 1 µg/mL

Cc1nn(-c2cc(O)ccc2O)c(C)c1Cl [Example 19, 2-(4-Chloro-3,5-dimethyl-1H-pyrazol-1-yl)benzene-1,4-diol]
MIC (T. rubrum ATCC10218): 16 to 32 µg/mL (≈ 67 to 134 µM) | MIC [1]: 16 to 32 µg/mL (≈ 67 to 134 µM)

Cc1nn(-c2cc(F)ccc2O)c(C)c1C [Example 20, 4-Fluoro-2-(3,4,5-trimethyl-1H-pyrazol-1-yl)phenol]
MIC (T. rubrum ATCC10218): 32 to 64 µg/mL (≈ 145 to 291 µM) | MIC [1]: 16 to 32 µg/mL (≈ 72.6 to 145 µM)

Cc1nn(-c2ccc(Cl)cc2O)c(C)c1C [Example 30, 5-Chloro-2-(3,4,5-trimethyl-1H-pyrazol-1-yl)phenol]
MIC (T. rubrum ATCC10218): ≤ 2 µg/mL | MIC [1]: ≤ 1 µg/mL

Cc1cc(C)n(-c2cccc(Cl)c2O)n1 [Example 12, 2-Chloro-6-(3,5-dimethyl-1H-pyrazol-1-yl)phenol]
MIC (T. rubrum ATCC10218): > 64 µg/mL | MIC [1]: 16 to 32 µg/mL (≈ 71.9 to 144 µM)

Cc1nn(-c2ccc(N)cc2O)c(C)c1C [Example 34, 5-Amino-2-(3,4,5-trimethyl-1H-pyrazol-1-yl)phenol]
MIC (T. rubrum ATCC10218): 4 to 16 µg/mL (≈ 18.4 to 73.6 µM) | MIC [1]: 2 to 8 µg/mL (≈ 9.21 to 36.8 µM)

Cc1cc(C)n(-c2c(N)cccc2O)n1 [Example 36, 3-Amino-2-(3,5-dimethyl-1H-pyrazol-1-yl)phenol]
MIC (T. rubrum ATCC10218): 32 to 64 µg/mL (≈ 157 to 315 µM) | inhibition of growth at 32 µg/mL [1]: < 50%

Cc1nn(-c2ccc(F)cc2O)c(C)c1C [Example 18, 5-Fluoro-2-(3,4,5-trimethyl-1H-pyrazol-1-yl)phenol]
MIC (T. rubrum ATCC10218): 4 to 16 µg/mL (≈ 18.2 to 72.6 µM) | MIC [1]: 2 to 8 µg/mL (≈ 9.08 to 36.3 µM)

Cc1ccc(-n2nc(C)cc2C)c(O)c1 [Example 44, 2-(3,5-Dimethyl-1H-pyrazol-1-yl)-5-methylphenol]
MIC (T. rubrum ATCC10218): ≤ 2 µg/mL | MIC [1]: ≤ 1 µg/mL

Cc1cc(C)n(-c2ccc(C(=O)O)cc2O)n1 [Example 37, 4-(3,5-Dimethyl-1H-pyrazol-1-yl)-3-hydroxybenzene carboxylic acid]
MIC (T. rubrum ATCC10218): 4 to 16 µg/mL (≈ 17.2 to 68.9 µM) | MIC [1]: 2 to 8 µg/mL (≈ 8.61 to 34.4 µM)

Cc1ccn(-c2ccccc2O)n1 [Example 7, 2-(3-Methyl-1H-pyrazol-1-yl)phenol]
MIC (T. rubrum ATCC10218): > 64 µg/mL | MIC [1]: 16 to 32 µg/mL (≈ 91.8 to 184 µM)

— patent US8889727B2, “Topical antifungal agent” (Meiji Seika Pharma Co., Ltd., priority 2011, dated 2014)
